Tested on: HEK293
Assay: Inhibition of Ca2+ release activated Ca2+ channels in thapsigarin-treated HEK cells
Format: cell-based
Conditions: Homo sapiens

CNC(=O)C[C@H]1C(=O)N(C)[C@@H](C)C(=O)OC(C)CCC/C=C/CCC(OC)C/C=C/C=C(\C)C(=O)N[C@H](C(C)C)C(=O)N(C)[C@@H](Cc2ccccc2)C(=O)N(C)[C@@H](C(C)C)C(=O)N(C)[C@@H](C(C)C)C(=O)N2CCC[C@H]2C(=O)N1C (stereo partly specified)
Activity: Dose-dependent effect
